Measured values published in article PMC6327993, “Synthesis carbonic anhydrase enzyme inhibition and antioxidant activity of novel benzothiazole derivatives incorporating glycine, methionine, alanine, and phenylalanine moieties” (Journal of Enzyme Inhibition and Medicinal Chemistry, 2018).

What was measured:
hCA I = hCA I (Homo sapiens, UniProt P00915); experiment: stopped flow CO2 hydrase assay, hCA I; format: biochemical; conditions: mean from three different assays, errors ±5–10%
Protocol: (§1) An applied photophysics stopped-flow instrument has been used for assaying the CA catalysed CO2 hydration activity by using method of Khalifah[34]. Phenol red (at a concentration of 0.2 mM) has been used as an indicator, working at the absorbance maximum of 557 nm, with 20 mM HEPES (pH 7.5) as buffer, and 20 mM Na2SO4 (for maintaining constant the ionic strength), following the initial rates of the CA-catalysed CO2 hydration reaction for a period of 10–100 s. The CO2 concentrations ranged from 1.7 to 17 mM for the determination of the kinetic parameters and inhibition constants. […] The uncatalysed rates were determined in the same manner and subtracted from the total observed rates. Stock solutions of inhibitor (0.1 mM) were prepared in distilled–deionised water and dilutions up to 0.01 nM were done thereafter with the assay buffer. Inhibitor and enzyme solutions were preincubated together for 15 min at room temperature prior to assay, in order to allow the formation of the E–I complex. The inhibition constants were obtained by non-linear least-square methods using PRISM (www.graphpad.com), and non-linear least squares methods, values representing the mean of at least three different determinations, as described earlier by us[35–39].

hCA II = hCA II (Homo sapiens, UniProt P00918); experiment: stopped flow CO2 hydrase assay, hCA II; format: biochemical; conditions: mean from three different assays, errors ±5–10%, read-out: KI hCAII
Protocol: as §1

hCA V = hCA V (Homo sapiens, UniProt P35218); experiment: stopped flow CO2 hydrase assay, hCA V; format: biochemical; conditions: mean from three different assays, errors ±5–10%
Protocol: as §1

hCA XIII = hCA XIII (Homo sapiens, UniProt Q8N1Q1); experiment: stopped flow CO2 hydrase assay, hCA XIII; format: biochemical; conditions: mean from three different assays, errors ±5–10%
Protocol: as §1

[1] = DPPH radical scavenging activity
Protocol: Antioxidant activity was determined based on the ability of the antioxidants to act as radical scavengers towards the stable free radical, 1,1-diphenyl-2-picrylhydrazyl (DPPH). As detailed by Yang et al.[40], 1 ml of antioxidant solution (solubilised in ethanol) was added to 3 ml of a 0.1 mM ethanolic solution of DPPH. After 30 min at ambient temperature in darkness, absorbance readings were taken at 517 nm. Inhibition (%) was calculated using the equation [1–(As−Ao)/Ab]×100 where As is the absorbance reading for samples containing antioxidant, Ao is the absorbance of the antioxidant in pure methanol and Ab corresponded to the absorbance of the DPPH solution.

Chain of hCA I (P00915 whole entry): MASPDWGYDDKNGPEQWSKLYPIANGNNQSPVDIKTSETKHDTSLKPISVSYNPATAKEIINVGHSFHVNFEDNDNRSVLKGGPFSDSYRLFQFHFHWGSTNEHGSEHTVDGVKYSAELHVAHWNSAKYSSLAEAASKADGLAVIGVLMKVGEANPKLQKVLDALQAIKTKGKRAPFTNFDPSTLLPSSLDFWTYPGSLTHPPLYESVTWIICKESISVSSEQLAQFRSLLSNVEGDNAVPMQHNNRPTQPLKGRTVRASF
Chain of hCA XIII (Q8N1Q1 whole entry): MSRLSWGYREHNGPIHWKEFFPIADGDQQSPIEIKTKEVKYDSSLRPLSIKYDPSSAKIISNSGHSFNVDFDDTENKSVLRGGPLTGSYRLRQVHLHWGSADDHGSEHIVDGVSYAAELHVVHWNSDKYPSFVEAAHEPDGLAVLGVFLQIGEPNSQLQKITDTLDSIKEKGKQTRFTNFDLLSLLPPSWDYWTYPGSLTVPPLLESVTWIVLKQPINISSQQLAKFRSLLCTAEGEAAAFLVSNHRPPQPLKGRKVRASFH
Chain of hCA V (P35218 39-305): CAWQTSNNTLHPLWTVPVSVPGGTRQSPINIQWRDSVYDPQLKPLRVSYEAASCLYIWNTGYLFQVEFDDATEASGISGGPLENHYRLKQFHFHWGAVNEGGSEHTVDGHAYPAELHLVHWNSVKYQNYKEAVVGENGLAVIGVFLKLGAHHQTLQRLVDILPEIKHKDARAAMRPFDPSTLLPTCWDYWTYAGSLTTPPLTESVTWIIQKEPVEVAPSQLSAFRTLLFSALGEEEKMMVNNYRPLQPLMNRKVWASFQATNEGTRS

Compound	Ki (hCA I) [µM]	Ki (hCA II) [µM]	Ki (hCA V) [µM]	Ki (hCA XIII) [µM]	Antioxidant activity, % ([1]; 12.5 μg/ml) [%]	Antioxidant activity, % ([1]; 25 μg/ml) [%]	Antioxidant activity, % ([1]; 37.5 μg/ml) [%]	Antioxidant activity, % ([1]; 62.5 μg/ml) [%]	Antioxidant activity, % ([1]; 125 μg/ml) [%]	melting point [°C]
CS(=O)(=O)c1ccc2nc(NC(=O)CNC(=O)OCC3c4ccccc4-c4ccccc43)sc2c1 [Compound 10, (9H-Fluoren-9-yl)methyl(2-((6-(methylsulfonyl)benzo[d]thiazol-2-yl)amino)-2-oxoethyl)carbamate]	7.1	> 100	2.9	> 100	0	0	22.5	23.1	24.5	–
Benzyl (4–(6-ethoxybenzo[d]thiazol-2-yl)-3-oxo-1-phenylbutan-2-yl)carbamate [Compound 6]	> 100	> 100	> 100	> 100	11.0	14.0	23.0	32.0	37.0	–
CCOc1ccc2nc(NC(=O)CNC(=O)OCc3ccccc3)sc2c1 [Compound 5]	> 100	82.3	> 100	> 100	12.0	15.0	25.0	32.0	38.0	214 to 215
CSCCC(NC(=O)OCc1ccccc1)C(=O)Nc1ccc(-c2nc3ccc(C)cc3s2)cc1 (centres unmarked) [Compound 13, Benzyl (1-((4–(6-methylbenzo[d]thiazol-2-yl)phenyl)amino)-4-(methylthio)-1-oxobutan-2-yl)carbamate]	> 100	39.1	41.2	84.9	5	6.7	6.1	7.1	8.2	200 to 201
Cc1ccc2nc(NC(=O)CNC(=O)OCc3ccccc3)sc2c1 [Compound 1]	4.3	32.1	4.3	94.6	0	0	0	11.4	12.5	213 to 214
Cc1cccc2sc(NC(=O)CNC(=O)OCC3c4ccccc4-c4ccccc43)nc12 [Compound 11, (9H-Fluoren-9-yl)methyl (2-((4-methylbenzo[d]thiazol-2-yl)amino)-2-oxoethyl)carbamate]	> 100	88.1	74.5	> 100	5	6.7	6.9	7.1	8.2	218 to 219
COc1ccc(O)c(C(C)(C)C)c1 [BHA, reference compound]	–	–	–	–	61.1	63.0	67.5	71.0	72.4	–
Cc1c(C)c2c(c(C)c1O)CC[C@@](C)(CCC[C@H](C)CCC[C@H](C)CCCC(C)C)O2 [α-Toc., α-tocopherol, reference compound]	–	–	–	–	62.9	63.4	68.4	72.8	74.0	–
Tert-butyl (4–(6-methylbenzo[d]thiazol-2-yl)-3-oxobutan-2-yl)carbamate [Compound 3]	90.5	50.4	86.9	> 100	3.3	3.4	5.3	7.5	7.7	–
Cc1ccc2nc(NC(=O)CNC(=O)OC(C)(C)C)sc2c1 [Compound 2]	> 100	74.8	65.5	> 100	0	0	3.9	4.6	6.1	212 to 213
CCOc1ccc2nc(NC(=O)CNC(=O)OC(C)(C)C)sc2c1 [Compound 7]	> 100	> 100	60	> 100	13.0	15.0	22.5	24.8	28.3	171 to 172
Cc1ccc2nc(-c3ccc(NC(=O)C(Cc4ccccc4)NC(=O)OCc4ccccc4)cc3)sc2c1 (centres unmarked) [Compound 12, Benzyl (1-((4–(6-methylbenzo[d]thiazol-2-yl)phenyl)amino)-1-oxo-3-phenylpropan-2-yl)carbamate]	> 100	37	> 100	> 100	0	3	3.4	5.8	6.1	227 to 228
Benzyl (3–(6-(methylsulfonyl)benzo[d]thiazol-2-yl)-2-oxopropyl)carbamate [Compound 8]	89.9	> 100	9	> 100	0	2.1	6.6	19.2	20.7	–
Tert-butyl (4–(6-methylbenzo[d]thiazol-2-yl)-3-oxo-1-phenylbutan-2-yl)carbamate [Compound 4]	> 100	> 100	> 100	> 100	0	5.7	5.8	9.6	–	–
Cc1ccc2nc(NC(=O)CNC(=O)OCC3c4ccccc4-c4ccccc43)sc2c1 [Compound 9, (9H-Fluoren-9-yl)methyl (2-((6-methylbenzo[d]thiazol-2-yl)amino)-2-oxoethyl)carbamate]	71.9	> 100	7.3	> 100	4	4.6	5.3	5.8	6.4	220 to 221
